Eight compounds from US20030215462A1, “Use of UGT inhibitors to increase bioavailability” (priority 2001, published 2003) can be followed below.

The structures appear in SMILES notation. Several values for one entry are separate records, joined by “and”; a condition that tells them apart may be missing. Identical values can stand only once.

Data set [1] concerns UGT enzymes of human liver microsomes. Kind of data set: Inhibition of 7-HFC glucuronidation in human liver microsomes. Particulars: 7-HFC 50 μM, human liver microsomes 100 μg/ml, 15 min. Format: biochemical. For orientation: Liver microsomes are a subcellular fraction often used to study metabolism.
The test system is the same in data set [2]. Kind of data set: Inhibition of 2ME2 glucuronidation (MG1, MG2) in human liver microsomes. Type of data set: biochemical. Particulars: liver 062101, 2ME2 50 μM. The source says:
Compounds were eluted using a binary solvent gradient system where solvent A was dilute phosphoric acid (pH 3) and solvent B was 80:20 acetonitrile-methanol. […] Detection was at 280 nm.

Data set [3] addresses T1, UGT1A10 (Homo sapiens, UniProt Q9HAW8).
T1 sequence (Q9HAW8 26-530): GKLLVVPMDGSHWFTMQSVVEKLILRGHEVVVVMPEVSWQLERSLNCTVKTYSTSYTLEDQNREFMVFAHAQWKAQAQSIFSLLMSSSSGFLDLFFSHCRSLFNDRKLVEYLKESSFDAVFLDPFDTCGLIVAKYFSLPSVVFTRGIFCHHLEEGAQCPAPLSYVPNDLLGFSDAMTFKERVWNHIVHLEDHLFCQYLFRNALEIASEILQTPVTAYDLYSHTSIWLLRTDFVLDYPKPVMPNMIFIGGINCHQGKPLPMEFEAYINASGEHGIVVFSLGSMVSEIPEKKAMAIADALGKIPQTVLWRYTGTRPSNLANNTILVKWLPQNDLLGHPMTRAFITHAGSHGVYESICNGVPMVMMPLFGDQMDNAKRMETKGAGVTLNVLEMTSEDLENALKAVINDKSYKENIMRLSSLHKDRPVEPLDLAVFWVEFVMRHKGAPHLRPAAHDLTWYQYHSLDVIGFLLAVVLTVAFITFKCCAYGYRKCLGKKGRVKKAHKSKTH
Put plainly: Inhibition of raloxifene glucuronidation by recombinant UGT1A10 Bacculosomes. As to conditions: for activity at 15 min, 50 µM: Bacculosomes with recombinant human UGT1A10, pH 7.5, probe raloxifene 50 μM.
Description: (§1) Compounds were eluted using a binary solvent gradient system. Solvent A was water brought to pH 8 with NH4OH. Solvent B was methanol. Solvent flow rate was 1 ml/min and the column temperature was maintained at 50° C. Detection was at 280 nm. […] The system was then returned to the initial conditions and equilibrated for 3 min.

In data set [4] the test system is T2, UGT enzymes of human liver microsomes.
T2 construct: residual metabolism (percentage of control), labetalol LG1; other: labetalol 50 μM; residual metabolism (percentage of control), labetalol LG1; residual metabolism (percentage of control), labetalol LG2; inhi
Kind of data set: Inhibition of labetalol glucuronidation (LG1, LG2) in human liver microsomes. As to conditions: labetalol 50 μM. Format: biochemical. Here is the method:
Supernatants were analyzed by HPLC with fluorescence detection.
Compounds were eluted using a binary solvent gradient system where solvent A was 5:5:90 tetrahydrofuran-acetonitrile-(NH4)2HPO4 50 mM, while solvent B was 25:25:50 tetrahydrofuran-acetonitrile-(NH4)2HPO4 50 mM. Solvent flow rate was 0.75 ml/min and the column temperature was ambient. […] Labetalol and metabolites were measured by fluorescence detection using a Jasco model FP920 detector. Excitation and emission wavelengths were 370 nm 418 nm respectively. Retention times for salicylamide internal standard and labetalol were 6.6 min and 15.0 min respectively.

A further data set addresses T3, UGT1A9 (Homo sapiens, UniProt O60656).
T3 sequence (O60656 26-530): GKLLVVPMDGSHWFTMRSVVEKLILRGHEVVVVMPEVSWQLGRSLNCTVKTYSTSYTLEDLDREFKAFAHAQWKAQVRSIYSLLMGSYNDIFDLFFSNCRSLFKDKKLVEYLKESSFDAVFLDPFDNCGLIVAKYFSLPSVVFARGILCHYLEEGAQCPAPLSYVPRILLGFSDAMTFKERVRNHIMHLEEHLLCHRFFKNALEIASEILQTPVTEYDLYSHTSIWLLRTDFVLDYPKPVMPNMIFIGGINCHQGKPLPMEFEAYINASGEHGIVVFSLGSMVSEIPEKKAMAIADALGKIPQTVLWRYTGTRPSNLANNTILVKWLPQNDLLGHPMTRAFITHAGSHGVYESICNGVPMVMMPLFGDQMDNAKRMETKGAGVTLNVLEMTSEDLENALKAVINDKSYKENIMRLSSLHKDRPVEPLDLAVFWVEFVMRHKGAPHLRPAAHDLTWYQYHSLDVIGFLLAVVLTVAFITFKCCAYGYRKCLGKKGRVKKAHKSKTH
Put plainly: in vitro.

Data set [5] has as its target T1, UGT1A10. Put plainly: in vitro. Particulars: pH 7.5, % of control metabolism.
Description: as §1
The next data set deals with T4, UGT1A8 (Homo sapiens, UniProt Q9HAW9).
T4 sequence (Q9HAW9 26-530): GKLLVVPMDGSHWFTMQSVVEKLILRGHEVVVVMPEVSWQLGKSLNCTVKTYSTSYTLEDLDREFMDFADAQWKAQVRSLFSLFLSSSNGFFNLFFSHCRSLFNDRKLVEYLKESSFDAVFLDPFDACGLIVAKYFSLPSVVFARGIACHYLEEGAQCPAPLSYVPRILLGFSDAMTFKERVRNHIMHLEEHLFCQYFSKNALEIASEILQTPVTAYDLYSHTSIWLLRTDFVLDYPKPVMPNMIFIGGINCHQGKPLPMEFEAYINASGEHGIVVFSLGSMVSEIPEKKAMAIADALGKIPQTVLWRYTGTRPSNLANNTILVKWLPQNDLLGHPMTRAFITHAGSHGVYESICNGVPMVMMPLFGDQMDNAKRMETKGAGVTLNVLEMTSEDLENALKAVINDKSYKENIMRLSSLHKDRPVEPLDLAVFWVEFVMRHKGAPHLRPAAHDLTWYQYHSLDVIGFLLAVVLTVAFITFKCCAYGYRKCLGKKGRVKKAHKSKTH
Kind of data set: in vitro. Particulars: pH 7.5, % of control metabolism.

In data set [6] the test system is UGT enzymes of human liver microsomes. Put plainly: Kinetic and Ki studies of inhibitors of 7-HFC glucuronidation in human liver microsomes. Format: biochemical.
[7] abbreviates: human, formation of glucuronide G1, % of control metabolism, raloxifene G1, UGT1A10, inhibitor 50 μM.
Setting [8] is: human, formation of glucuronide G2, % of control metabolism, raloxifene G2, UGT1A10, inhibitor 50 μM.
Where [9] appears, read: pH 7.5, % of control metabolism, raloxifene G1.
[10] abbreviates: pH 7.5, % of control metabolism, raloxifene G2.
The mark [11] stands for this setting: pH 7.5, Inhibition of raloxifene glucuronidation, UGT1A9, first line per inhibitor (G1).
The mark [12] stands for this setting: pH 7.5, Inhibition of raloxifene glucuronidation, UGT1A9, second line per inhibitor (G2).

Description for UGT1A8: as §1
Description for UGT1A9: as §1

In the case of `CC/C(=C(/CC)c1ccc(O)cc1)c1ccc(O)cc1` [Diethylstilbestrol, reference compound], the “% of control metabolism (SD, n = 3), 7-HFC glucuronidation” value is 90 (3) % in data set [1] (inhibitor 5 μM) and 80 (4) % in data set [1] (inhibitor 10 μM). Besides, the “residual metabolism (% of control), 2ME2 MG1” value is recorded as 88 (2) % in data set [2] (inhibitor 1 μM) and 72 (2) % in data set [2] (inhibitor 10 μM). Further, the “residual metabolism (% of control), 2ME2 MG2” value in data set [2] (inhibitor 1 μM) is on record as 335 (5) %; in data set [2] (inhibitor 10 μM), 632 (4) %. Also, the activity at 15 min, 10 µM on UGT1A10 [3] (human, Bacculosomes with recombinant human UGT1A10, pH 7.5, % of control metabolism, raloxifene glucuronide (one value printed, G1 or G2 not stated), UGT1A10, inhibitor 10 μM) was 70%. Moreover, the activity at 15 min, 25 µM at UGT1A10 [3] (human, Bacculosomes with recombinant human UGT1A10, pH 7.5, % of control metabolism, raloxifene glucuronide (one value printed, G1 or G2 not stated), UGT1A10, inhibitor 25 μM) came out at 74%. The values for the activity at 15 min, 50 µM on UGT1A10 [3] (setting [7]) and at UGT1A10 [3] (setting [8]) were 50% and 39%, respectively. The “residual metabolism (percentage of control), labetalol LG1” value is 23 (3) % in data set [4] (inhibitor 50 μM); 1 (3) % and 5 (3) % in data set [4] (inhibitor 100 μM). Besides, the “residual metabolism (percentage of control), labetalol LG2” value in data set [4] (inhibitor 50 μM) was 29 (8) %; in data set [4] (inhibitor 100 μM), 11 (1) % and 8 (1) %.
On to `O=C(O)c1cc(-c2ccc(F)cc2F)ccc1O` [Diflunisal, reference compound], for which the activity at 15 min, 50 µM turned out to be 50% on UGT1A9 (setting [9]); 43% at UGT1A9 (setting [10]); 90% at UGT1A10 [5] (raloxifene G1); 90% at UGT1A10 [5] (raloxifene G2); 81% on UGT1A8 (raloxifene G1); 126% at UGT1A8 (raloxifene G2). Moreover, the “residual metabolism (percentage of control), labetalol LG1” value is 92 (4) % in data set [4] (inhibitor 50 μM); 80 (6) % and 86 (5) % in data set [4] (inhibitor 100 μM). In addition, the “residual metabolism (percentage of control), labetalol LG2” value in data set [4] (inhibitor 50 μM) was 80 (3) %; in data set [4] (inhibitor 100 μM) it was 70 (4) % and 73 (2) %.
For the compound `O=C(O[C@@H]1Cc2c(O)cc(O)cc2O[C@@H]1c1ccc(O)c(O)c1)c1cc(O)c(O)c(O)c1` [Epicatechin gallate], the activity at 15 min, 50 µM is 48% on UGT1A9 (setting [9]); 45% on UGT1A9 (setting [10]); 54% on UGT1A10 [5] (raloxifene G1); 51% at UGT1A10 [5] (raloxifene G2); 71% at UGT1A8 (raloxifene G1); 53% on UGT1A8 (raloxifene G2). For the same compound, the “residual metabolism (percentage of control), labetalol LG1” value in data set [4] (inhibitor 100 μM) is 74 (1) %. Further, the “residual metabolism (percentage of control), labetalol LG2” value in data set [4] (inhibitor 100 μM) was 86 (2) %.
Consider `O=C(O[C@@H]1Cc2c(O)cc(O)cc2O[C@@H]1c1cc(O)c(O)c(O)c1)c1cc(O)c(O)c(O)c1` [Epigallocatechin gallate], for which, on UGT1A10 [3] (UGT1A10, inhibitor 25 μM), the “% of control metabolism, raloxifene G1” value was 68 (1) % and the “% of control metabolism, raloxifene G2” value was 73 (1) %. Also, at UGT1A10 [3] (UGT1A10, inhibitor 50 μM), the “% of control metabolism, raloxifene G1” value is 37 (2) % and the “% of control metabolism, raloxifene G2” value was 37 (1) %. Besides, in data set [4] (inhibitor 100 μM), the “residual metabolism (percentage of control), labetalol LG1” value is listed as 55 (2) % and the “residual metabolism (percentage of control), labetalol LG2” value is reported as 52 (5) %.
As to `C=CCc1ccc(O)c(OC)c1` [Eugenol], the activity at 15 min, 25 µM at UGT1A9 (setting [9]) turned out to be 56%; on UGT1A9 (setting [10]), 51%; on UGT1A9 (setting [11]), 56%; on UGT1A9 (setting [12]), 51%. Also, the activity at 15 min, 50 µM at UGT1A9 (setting [9]) is 32%; on UGT1A9 (setting [10]), 29%; on UGT1A9 (setting [11]), 32%; on UGT1A9 (setting [12]), 29%; at UGT1A10 [5] (raloxifene G1) it was 85%; on UGT1A10 [5] (raloxifene G2), 81%. For the same compound, the activity at 15 min, 50 µM is 107% on UGT1A8 (raloxifene G1) and 103% on UGT1A8 (raloxifene G2). Further, the “inhibition of raloxifene glucuronidation, in words” value (from here on “inhibition … in words”) at UGT1A10 [3] (UGT1A10) was “ineffective”. In addition, the “residual metabolism (percentage of control), labetalol LG1” value in data set [4] (inhibitor 100 μM) is 82 (2) %. The “residual metabolism (percentage of control), labetalol LG2” value in data set [4] (inhibitor 100 μM) is reported as 75 (4) %.
For the compound `CCCCCCCCOC(=O)c1cc(O)c(O)c(O)c1` [Octyl gallate], the “Inhibition Type” value in data set [6] (highest inhibitor concentration only) was “strictly non-competitive”. Also, the Ki in data set [6] (highest inhibitor concentration only (tannic acid 0, 25; octyl gallate and gallocatechin gallate 0, 200 μM), read-out: Ki (apparent), 7-HFC glucuronidation) turned out to be 16 ± 2 µM. For the same compound, the “inhibition … in words” value at UGT1A10 [3] (UGT1A10) is recorded as “very poor inhibitor”. Further, the activity at 15 min, 50 µM is 63% at UGT1A10 [3] (setting [7]) and 71% at UGT1A10 [3] (setting [8]).
On to `CCCOC(=O)c1cc(O)c(O)c(O)c1` [Propyl gallate], for which the activity at 15 min, 50 µM on UGT1A9 (setting [9]) was 48%; on UGT1A9 (setting [10]), 51%; at UGT1A10 [5] (raloxifene G1), 80%; at UGT1A10 [5] (raloxifene G2), 72%. The results for the “% of control metabolism (SD, n = 3), 7-HFC glucuronidation” value in data set [1] (inhibitor 1000 μM) and in data set [1] (inhibitor 2000 μM) were 46 (1) % and 32 (0) %, respectively.
With `O=c1c(O)c(-c2ccc(O)c(O)c2)oc2cc(O)cc(O)c12` [Quercetin], the activity at 15 min, 25 µM at UGT1A10 [5] (raloxifene G1) and at UGT1A10 [5] (raloxifene G2) was 80% throughout. Moreover, the activity at 15 min, 50 µM at UGT1A10 [5] (raloxifene G1) came out at 55%; at UGT1A10 [5] (raloxifene G2) it was 48%; on UGT1A8 (raloxifene G1), 95%; at UGT1A8 (raloxifene G2) it was 81%. Moreover, the “inhibition … in words” value on UGT1A10 [3] (UGT1A10) is recorded as “only a modest effect”. Also, the “residual metabolism (percentage of control), labetalol LG1” value in data set [4] (inhibitor 50 μM) is 78 (4) %; in data set [4] (inhibitor 100 μM), 56 (8) % and 49 (7) %. Also, the “residual metabolism (percentage of control), labetalol LG2” value in data set [4] (inhibitor 50 μM) was 70 (3) %; in data set [4] (inhibitor 100 μM), 47 (6) % and 43 (9) %.
